Results: PMC13516207 (Pharmaceuticals, 2026)
Bridge positions count the residues as written; N and C are the ends. Square brackets hold non-standard residues; d marks the D form. Side chains are listed from the residue outwards. Peptide text beside a SMILES is read from it. * marks the point of attachment. NOTA = O=C(O)CN1CCN(CC(=O)O)CCN(CC(=O)*)CC1; 2Nal = N[C@@H](Cc1ccc2ccccc2c1)C(=O)O; Lys(iPr) = CC(C)NCCCC[C@H](N)C(=O)O

Molecular target: human CXCR4 (Homo sapiens, UniProt P61073)
Assay: CXCL12-AF647 competition binding on Jurkat cells, flow cytometry
Details: competition with CXCL12-AF647, mean ± SD
Method: Subsequently, 50 µL containing 0.25 × 10^6 Jurkat cells was added to each well, followed by 50 µL human CXCL12-AF647 (100 ng/mL; Almac, Craigavon, UK). Plates were incubated for 30 min at room temperature in the dark. After incubation, the cells were washed twice by centrifugation (400× g, 5 min) to replace the supernatant and subsequently fixed with 1% paraformaldehyde (Merck, Darmstadt, Germany). Fluorescence intensity was quantified by flow cytometry, and IC50 values were obtained by nonlinear regression analysis. All measurements were performed with at least four technical replicates.

Sequence of human CXCR4 (P61073 whole entry): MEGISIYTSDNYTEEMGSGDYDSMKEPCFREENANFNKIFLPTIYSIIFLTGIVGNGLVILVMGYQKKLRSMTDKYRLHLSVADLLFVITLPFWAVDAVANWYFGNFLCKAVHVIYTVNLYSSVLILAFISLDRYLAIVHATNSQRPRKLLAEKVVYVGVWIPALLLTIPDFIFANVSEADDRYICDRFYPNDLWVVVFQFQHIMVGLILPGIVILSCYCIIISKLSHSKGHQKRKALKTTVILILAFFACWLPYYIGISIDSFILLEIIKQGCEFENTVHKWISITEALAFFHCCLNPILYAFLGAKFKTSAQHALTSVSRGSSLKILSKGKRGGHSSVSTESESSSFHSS

Row | Compound | IC50
1 | CC(C)NCCCC[C@H](NC(=O)[C@H]1CCC(=O)N[C@@H](Cc2ccccc2)C(=O)N[C@@H](Cc2ccc(O)cc2)C(=O)N[C@@H](CCCCNC(C)C)C(=O)N[C@H](CCCNC(=N)N)C(=O)N[C@@H](Cc2ccc3ccccc3c2)C(=O)NCC(=O)N1)C(N)=O [LY2510924, cyclo[Phe-Tyr-Lys(iPr)-D-Arg-2-Nal-Gly-D-Glu]-Lys(iPr)-NH2] (FY[Lys(iPr)][dR][2Nal]G[dE][Lys(iPr)]-NH2; lactam N-7) | 0.36 ± 0.07 nM
2 | CC(C)NCCCC[C@@H]1NC(=O)[C@H](Cc2ccc(O)cc2)NC(=O)[C@H](Cc2ccccc2)NC(=O)CC[C@H](C(=O)N[C@@H](CCCCNC(C)C)C(=O)N[C@@H](CCCCNC(=O)[C@H](CCC(=O)O)NC(=O)[C@H](CCC(=O)O)NC(=O)[C@H](CCC(=O)O)NC(=O)CN2CCN(CC(=O)O)CCN(CC(=O)O)CC2)C(N)=O)NC(=O)CNC(=O)[C@H](Cc2ccc3ccccc3c2)NC(=O)[C@@H](CCCNC(=N)N)NC1=O [[^natF]AlF-NOTA-SC] (FY[Lys(iPr)][dR][2Nal]G[dE][Lys(iPr)]K([Glu-Glu-Glu-NOTA])-NH2; lactam N-7) | 14.4 ± 2.65 nM
